In data set [1] the test system is HMG-CoA reductase. As to the kind of experiment: HMG-CoA Reductase Inhibition Assay (in vitro, relative to compactin). In kind it is biochemical. The settings on record: IC50 compared with compactin determined simultaneously, compactin assigned 100; tested as sodium salt of dihydroxy acid form; solubilized rat liver microsomal enzyme. On the procedure: The intrinsic HMG-CoA reductase inhibition activity of the claimed compounds is measured in the in vitro protocol published in J. Med. Chem., 28, p. […] (1985) and described below: Male Holtzman Sprague-Dawley rats (225-250 g) were kept on reversed lighting and fed Purina rat chow containing 3% cholestyramine for 7 days preceding their sacrifice by CO2 asphyxiation. Livers were removed 6 hours into the dark cycle and used immediately to prepare microsomes. HMG-CoA reductase was solubilized from the freshly prepared microsomes by the method of Heller and Shrewsbury [J. Biol. Chem., 1976, 251, 3815]and purified through the second ammonium sulfate precipitation step as described by Kleinsek et al. [Proc. Natl. Acad. Sci. USA, 1977, 74, 1431]. […] The enzyme preparation was stored at -80° C. The assay is essentially the procedure of Shefer et al. [J. Lipid Res., 1972, 13, 402]. The complete assay medium contained the following in a total volume of 0.8 ml: phosphate buffer, pH 7.2, 100 mM; MgCl2, 3 mM; NADP, 3 mM; glucose-6-phosphate, 10 mM; glucose-6-phosphate dehydro-genase, 3 enzyme units; reduced glutathione 50 mM; HMG-CoA (glutaryl-3-^14 C, New England Nuclear), 0.2 mM (0.1 μCi); and partially purified enzyme stock solution, 100 μL. […] After a 40-minute incubation at 37° C. with shaking and exposure to air, the reaction was stopped by the addition of 0.4 mL of 8 N HCl. After an additional 30-minute incubation period at 37° C. to ensure the complete lactonization of mevalonic acid to mevalonolactone, 0.2 ml of the mixture was added to an 0.5×5.0 cm column containing 100-200 mesh Bio-Rex 5, chloride form (Bio-Rad), wetted with distilled water, as described by Alberts et al. [Proc. Natl. Acad. Sci. U.S.A., 1980, 77, 3967]. The unreacted [^14 C]HMG-CoA was absorbed on the resin and the [^14 C]mevalonolactone was eluted with distilled water (2×1 ml) directly into 7-ml scintillation vials. Five milliliters of Aquasol-2 (New England Nuclear) was added to each vial, and radioactivity was measured in a Packard Tri Carb Prias scintillation counter. IC50 values were determined by plotting percentage inhibition against test compound concentration and fitting a straight line to the resulting data by using the least-squares method.
Background: Liver microsomes are a subcellular fraction often used to study metabolism.

A short description of data set [2]: Standing of the free dihydroxy acid (reversion to lactone). The settings on record: free dihydroxy acid after isolation; can be maintained by increasing the pH above 7.0. In kind it is physicochemical. The method, then:
The sodium salt of the compound II from Example 64 is dissolved in 2 ml of ethanol-water (1:1; v:v) and added to 10 ml of 1N hydrochloric acid from which the dihydroxy acid is extracted with ethyl acetate. The organic extract is washed once with water, dried (Na2 SO4), and evaporated in vacuo with a bath temperature not exceeding 30° C. […] The dihydroxy acid can be maintained by increasing the pH above 7.0.

Regarding `CCC(C)(C)C(=O)OC[C@H]1C[C@@H]2CC[C@H](C)[C@H](CC[C@@H](O)C[C@@H](O)CC(=O)O)[C@H]2[C@@H](OC(=O)C(C)(C)CC)C1`, the “Relative Potency” value in data set [1] came to 100.
As for `CCC(C)(C)C(=O)O[C@H]1C[C@H](COC(=O)Nc2ccccc2)C=C2C=C[C@H](C)[C@H](CC[C@@H](O)C[C@@H](O)CC(=O)O)[C@H]21`, the “Relative Potency” value in data set [1] is on record as 726.
Regarding `CCC(C)(C)C(=O)O[C@H]1C[C@@H](C(=O)N(C(=O)NC2CCCCC2)C2CCCCC2)C[C@@H]2CC[C@H](C)[C@H](CC[C@@H](O)C[C@@H](O)CC(=O)O)[C@H]21`, the “Relative Potency” value in data set [1] was determined as 100.
For the compound `CCC(C)(C)C(=O)OC[C@H]1C=C2CC[C@H](C)[C@H](CC[C@@H](O)C[C@@H](O)CC(=O)O)[C@H]2[C@@H](OC(=O)C(C)(C)CC)C1`, the “Relative Potency” value in data set [1] stood at 33.
The same measure, in the same setting: the figure for `CCC(C)(C)C(=O)O[C@H]1C[C@H](C(C)O)C[C@@H]2CC[C@H](C)[C@H](CC[C@@H](O)C[C@@H](O)CC(=O)O)[C@H]21` (single isomer, unassigned) [-- -- -- R CHOHCH3 (ISOMER A) 1,1-dimethylpropyl] is 111; for `CCC(C)(C)C(=O)O[C@H]1C[C@H](C(C)O)C[C@@H]2CC[C@H](C)[C@H](CC[C@@H](O)C[C@@H](O)CC(=O)O)[C@H]21` (single isomer, unassigned) [-- -- -- R CHOHCH3 (ISOMER B) 1,1-dimethylpropyl] it is 104; for `CCC(C)(C)C(=O)O[C@H]1C[C@@H](C(C)O)C[C@@H]2CC[C@H](C)[C@H](CC[C@@H](O)C[C@@H](O)CC(=O)O)[C@H]21` (single isomer, unassigned) [-- -- -- S CHOHCH3 (ISOMER A) 1,1-dimethylpropyl] it is 131.
The same measure, in the same setting: the figure for `CCC(C)(C)C(=O)O[C@H]1C[C@@H](C(C)O)C[C@@H]2CC[C@H](C)[C@H](CC[C@@H](O)C[C@@H](O)CC(=O)O)[C@H]21` (single isomer, unassigned) [-- -- -- S CHOHCH3 (ISOMER B) 1,1-dimethylpropyl] is 113; for `CCC(C)(C)C(=O)O[C@H]1C[C@@H](C(O)c2ccccc2)C[C@@H]2CC[C@H](C)[C@H](CC[C@@H](O)C[C@@H](O)CC(=O)O)[C@H]21` (single isomer, unassigned) [-- -- -- S CHOHPH 1,1-dimethylpropyl] it is 220; for `CCC(C)(C)C(=O)O[C@H]1C[C@@H](CO)C[C@@H]2CC[C@H](C)[C@H](CC[C@@H](O)C[C@@H](O)CC(=O)O)[C@H]21` [-- -- -- S CH2 OH 1,1-dimethylpropyl] it is 86.
As to `C[C@H]1CC[C@H]2C[C@H](CO)C[C@H](OC(=O)C3CCCCC3)[C@@H]2[C@H]1CC[C@@H](O)C[C@@H](O)CC(=O)O` [-- -- -- S CH2 OH cyclohexyl], the “Relative Potency” value in data set [1] came to 33.
In the case of `CCOC(=O)[C@H]1C[C@@H]2CC[C@H](C)[C@H](CC[C@@H](O)C[C@@H](O)CC(=O)O)[C@H]2[C@@H](OC(=O)C(C)(C)CC)C1` [-- -- -- S CO2 Et 1,1-dimethylpropyl], the “Relative Potency” value in data set [1] was found to be 125.
The same measure, in the same setting: the figure for `CCC(C)(C)C(=O)O[C@H]1C[C@@H](C(=O)O)C[C@@H]2CC[C@H](C)[C@H](CC[C@@H](O)C[C@@H](O)CC(=O)O)[C@H]21` [-- -- -- S CO2 H 1,1-dimethylpropyl] is 79; for `CCC(C)(C)C(=O)O[C@H]1C[C@@H](C(=O)OC(C)C)C[C@@H]2CC[C@H](C)[C@H](CC[C@@H](O)C[C@@H](O)CC(=O)O)[C@H]21` [-- -- -- S CO2 i-Pr 1,1-dimethylpropyl] it is 80.
On the same count and under the same terms, the value for `CCC(C)(C)C(=O)O[C@H]1C[C@@H](C(N)=O)C[C@@H]2CC[C@H](C)[C@H](CC[C@@H](O)C[C@@H](O)CC(=O)O)[C@H]21` [-- -- -- S CONH2 1,1-dimethylpropyl] was 107.
The same measure, in the same setting: the figure for `CCC(C)(C)C(=O)O[C@H]1C[C@@H](C(=O)N(C)C)C[C@@H]2CC[C@H](C)[C@H](CC[C@@H](O)C[C@@H](O)CC(=O)O)[C@H]21` [-- -- -- S CONMe2 1,1-dimethylpropyl] is 75.
On to `CCC(C)(C)C(=O)O[C@H]1C[C@@H](CO)C[C@@H]2CC[C@H](C)[C@H](CC[C@@H](O)C[C@@H](O)CC(=O)O)[C@H]21` [Example 70], for which the “stability of the dihydroxy acid on standing” value in data set [2] was “slowly reverts to the corresponding,parent lactone on standing”.
Consider `CCC(C)(C)C(=O)O[C@H]1C[C@@H](CO)C=C2CC[C@H](C)[C@H](CC[C@@H](O)C[C@@H](O)CC(=O)O)[C@H]21` [db -- -- R CH2 OH 1,1-dimethylpropyl], for which the “Relative Potency” value in data set [1] is recorded as 213.
Regarding `CCC(C)C(=O)O[C@H]1C[C@@H](CO)C=C2C=C[C@H](C)[C@H](CC[C@@H](O)C[C@@H](O)CC(=O)O)[C@H]21` (stereo partly shown) [db -- db R CH2 OH sec-butyl], the “Relative Potency” value in data set [1] turned out to be 47.
The same measure, in the same setting: the figure for `CCC(C)(C)C(=O)O[C@H]1C[C@@H](C(=O)O)C=C2C=C[C@H](C)[C@H](CC[C@@H](O)C[C@@H](O)CC(=O)O)[C@H]21` [db -- db R CO2 H 1,1-dimethylpropyl] is 94; for `CCC(C)(C)C(=O)O[C@H]1C[C@H](CO)C=C2C=C[C@H](C)[C@H](CC[C@@H](O)C[C@@H](O)CC(=O)O)[C@H]21` [db -- db S CH2 OH 1,1-dimethylpropyl] it is 189.
Same read-out and setting: the figure for `CCC(C)(C)C(=O)O[C@H]1C[C@H](C(=O)O)C=C2C=C[C@H](C)[C@H](CC[C@@H](O)C[C@@H](O)CC(=O)O)[C@H]21` [db -- db S CO2 H 1,1-dimethylpropyl] is 99.
The same measure, in the same setting: the figure for `CCC(C)C(=O)O[C@H]1C[C@H](C(=O)O)C=C2C=C[C@H](C)[C@H](CC[C@@H](O)C[C@@H](O)CC(=O)O)[C@H]21` (stereo partly shown) [db -- db S CO2 H sec-butyl] is 26; for `CCN(CC)C(=O)[C@@H]1C=C2C=C[C@H](C)[C@H](CC[C@@H](O)C[C@@H](O)CC(=O)O)[C@H]2[C@@H](OC(=O)C(C)(C)CC)C1` [db -- db S CONEt2 1,1-dimethylpropyl] it is 65.
For the compound `CCC(C)(C)C(=O)O[C@H]1C[C@H](C(=O)N(C)C)C=C2C=C[C@H](C)[C@H](CC[C@@H](O)C[C@@H](O)CC(=O)O)[C@H]21` [db -- db S CONMe2 1,1-dimethylpropyl], the “Relative Potency” value in data set [1] was 82.

The values are drawn from patent publication USRE36481E, “HMG-CoA reductase inhibitors” (Merck & Co., Inc., priority 1998, dated 2000).
